In the NIST ThermoML archive (doi:10.1021/je800377b):
Numbers after ± are expanded uncertainties.

Settings: Liquid

Row | Structure (SMILES) | vapor or sublimation pressure (273.15 K) [kPa] | vapor or sublimation pressure (283.15 K) [kPa] | vapor or sublimation pressure (293.15 K) [kPa] | vapor or sublimation pressure (303.15 K) [kPa] | vapor or sublimation pressure (313.15 K) [kPa] | vapor or sublimation pressure (323.15 K) [kPa]
1 | CCC [propane] | 476 ± 6 | 633 ± 8 | 833 ± 10 | 1079 ± 13 | 1366 ± 17 | 1709 ± 21
2 | CCCC [butane] | 103 ± 2 | 149 ± 3 | 208 ± 3 | 284 ± 4 | 378 ± 5 | 493 ± 6
